From the NIST ThermoML archive (doi:10.1021/acs.jced.5b00259)

Assay: xn = mol fraction of the nth substance listed
Conditions: 100 kPa, Liquid

CC[NH+]=C(N(C)C)N(C)C.O=S(=O)([N-]S(=O)(=O)C(F)(F)F)C(F)(F)F + CCCO
Conditions | mass density [kg/m3] | viscosity [mPa·s]
293.15 K, x1 = 0.1024 | 997.39 | 4.462
293.15 K, x1 = 0.2019 | 1114.71 | 7.27
293.15 K, x1 = 0.2973 | 1192.09 | 10.87
293.15 K, x1 = 0.4011 | 1252.75 | 16.1
293.15 K, x1 = 0.4988 | 1295.36 | 21.63
293.15 K, x1 = 0.5962 | 1328.36 | 28.19
293.15 K, x1 = 0.6997 | 1356.59 | 36.71
293.15 K, x1 = 0.7931 | 1377.81 | 45.87
293.15 K, x1 = 0.9014 | 1398.72 | 58.37
293.15 K, x1 = 1 | 1414.89 | 74.61
298.15 K, x1 = 0.1024 | 992.96 | 3.868
298.15 K, x1 = 0.2019 | 1110.07 | 6.213
298.15 K, x1 = 0.2973 | 1187.4 | 9.224
298.15 K, x1 = 0.4011 | 1247.97 | 13.49
298.15 K, x1 = 0.4988 | 1290.53 | 18.01
298.15 K, x1 = 0.5962 | 1323.53 | 23.23
298.15 K, x1 = 0.6997 | 1351.73 | 29.87
298.15 K, x1 = 0.7931 | 1372.97 | 37.15
298.15 K, x1 = 0.9014 | 1393.86 | 46.91
298.15 K, x1 = 1 | 1410.03 | 58.86
303.15 K, x1 = 0.1024 | 988.5 | 3.38
303.15 K, x1 = 0.2019 | 1105.48 | 5.362
303.15 K, x1 = 0.2973 | 1182.67 | 7.898
303.15 K, x1 = 0.4011 | 1243.16 | 11.48
303.15 K, x1 = 0.4988 | 1285.7 | 15.21
303.15 K, x1 = 0.5962 | 1318.7 | 19.43
303.15 K, x1 = 0.6997 | 1346.89 | 24.76
303.15 K, x1 = 0.7931 | 1368.14 | 30.48
303.15 K, x1 = 0.9014 | 1389.02 | 38.17
303.15 K, x1 = 1 | 1405.19 | 47.27
308.15 K, x1 = 0.1024 | 984.03 | 2.972
308.15 K, x1 = 0.2019 | 1100.81 | 4.667
308.15 K, x1 = 0.2973 | 1177.93 | 6.831
308.15 K, x1 = 0.4011 | 1238.35 | 9.85
308.15 K, x1 = 0.4988 | 1280.88 | 12.98
308.15 K, x1 = 0.5962 | 1313.87 | 16.47
308.15 K, x1 = 0.6997 | 1342.09 | 20.85
308.15 K, x1 = 0.7931 | 1363.32 | 25.37
308.15 K, x1 = 0.9014 | 1384.21 | 31.53
308.15 K, x1 = 1 | 1400.38 | 38.71
313.15 K, x1 = 0.1024 | 979.55 | 2.63
313.15 K, x1 = 0.2019 | 1096.13 | 4.093
313.15 K, x1 = 0.2973 | 1173.18 | 5.966
313.15 K, x1 = 0.4011 | 1233.59 | 8.525
313.15 K, x1 = 0.4988 | 1276.07 | 11.21
313.15 K, x1 = 0.5962 | 1309.06 | 14.12
313.15 K, x1 = 0.6997 | 1337.29 | 17.73
313.15 K, x1 = 0.7931 | 1358.51 | 21.42
313.15 K, x1 = 0.9014 | 1379.42 | 26.43
313.15 K, x1 = 1 | 1395.59 | 32.2
318.15 K, x1 = 0.1024 | 975.03 | 2.34
318.15 K, x1 = 0.2019 | 1091.46 | 3.684
318.15 K, x1 = 0.2973 | 1168.42 | 5.248
318.15 K, x1 = 0.4011 | 1228.78 | 7.433
318.15 K, x1 = 0.4988 | 1271.27 | 9.743
318.15 K, x1 = 0.5962 | 1304.24 | 12.24
318.15 K, x1 = 0.6997 | 1332.49 | 15.26
318.15 K, x1 = 0.7931 | 1353.72 | 18.28
318.15 K, x1 = 0.9014 | 1374.63 | 22.43
318.15 K, x1 = 1 | 1390.8 | 27.09
323.15 K, x1 = 0.1024 | 970.48 | 2.094
323.15 K, x1 = 0.2019 | 1086.71 | 3.283
323.15 K, x1 = 0.2973 | 1163.66 | 4.64
323.15 K, x1 = 0.4011 | 1223.97 | 6.437
323.15 K, x1 = 0.4988 | 1266.46 | 8.553
323.15 K, x1 = 0.5962 | 1299.4 | 10.7
323.15 K, x1 = 0.6997 | 1327.7 | 13.27
323.15 K, x1 = 0.7931 | 1348.94 | 15.77
323.15 K, x1 = 0.9014 | 1369.87 | 19.26
323.15 K, x1 = 1 | 1386.03 | 23.14
